Measurements: patent publication US20060141098A1, “Nutritional additive for animals” (Kemira Grow How AB, priority 2002, published 2006)

Experiments:
[1] = Phosphorus solubility in water (Quimociac method); assay type: physicochemical; settings: tricalcium phosphate experiment, absolute content
Description: (§1) At room temperature, 3 g sample and 300 ml distilled water have been agitated for 30 min. Subsequently the solution has been diluted to 500 ml and stirred. Then the solution has been filtered to remove the remaining solids. The Ca^2+ content of the solution was determined flame photometrically by means of ICP, and the amount of dissolved phosphorus was determined by the Quimociac method. These two methods are well known in the technical field.

[2] = Calcium solubility in water (ICP); assay type: physicochemical; settings: tricalcium phosphate experiment, absolute content
Description: as §1

pigs = settings: phosphorus digestibility, Veevoedertabel 2000; cited from earlier work

Compound: hydroxyl apatite [Hydroxyl apatite (ref)]
- % P water sol. [1]: <0.1%
- % Ca water sol. [2]: <0.1%

Compound: O=P([O-])([O-])O.[Ca+2] [Dicalcium phosphate, anhydrate]
- Dig. Coeff. for pigs Average (pigs): 0.64

Compound: Dicalcium phosphate, dihydrate
- Dig. Coeff. for pigs Average (pigs): 0.70
